biological target: Cdk9/cyclinT1 (Homo sapiens (Human), UniProt P50750); assay: Cdk9/CyclinT1 IMAP Protocol (fluorescence polarization kinase assay); type: biochemical; settings: Table 2; generated using one of the two Cdk9/cyclinT1 assays (IMAP or Alpha Screen), not specified which; unit inferred
Summary of the method: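 Reaction used 4 nM Cdk9/cyclinT1, 100 nM 5TAMRA-cdk7tide peptide and 6 uM ATP in 100 mM Tris pH 7.2 with MgCl2, 0.01% Tween-20, 1 mM DTT and 2.5% DMSO, running 4.5 h. Phosphopeptide was captured by IMAP binding reagent for >1 h, then read by fluorescence polarization (ex 531/em 595 nm).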

Cdk9/cyclinT1, sequence (P50750 whole entry): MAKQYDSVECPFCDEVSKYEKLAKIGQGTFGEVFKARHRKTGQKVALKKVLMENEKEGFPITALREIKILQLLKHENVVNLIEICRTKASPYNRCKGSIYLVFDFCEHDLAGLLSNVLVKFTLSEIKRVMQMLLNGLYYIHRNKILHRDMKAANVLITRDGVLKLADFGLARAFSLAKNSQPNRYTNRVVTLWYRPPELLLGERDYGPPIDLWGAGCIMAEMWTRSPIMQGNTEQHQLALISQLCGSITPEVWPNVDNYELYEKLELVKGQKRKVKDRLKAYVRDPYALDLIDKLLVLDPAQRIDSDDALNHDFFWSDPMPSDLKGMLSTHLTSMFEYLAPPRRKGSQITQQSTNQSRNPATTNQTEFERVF
Cdk9/cyclinT1, sequence (O60563 whole entry partner): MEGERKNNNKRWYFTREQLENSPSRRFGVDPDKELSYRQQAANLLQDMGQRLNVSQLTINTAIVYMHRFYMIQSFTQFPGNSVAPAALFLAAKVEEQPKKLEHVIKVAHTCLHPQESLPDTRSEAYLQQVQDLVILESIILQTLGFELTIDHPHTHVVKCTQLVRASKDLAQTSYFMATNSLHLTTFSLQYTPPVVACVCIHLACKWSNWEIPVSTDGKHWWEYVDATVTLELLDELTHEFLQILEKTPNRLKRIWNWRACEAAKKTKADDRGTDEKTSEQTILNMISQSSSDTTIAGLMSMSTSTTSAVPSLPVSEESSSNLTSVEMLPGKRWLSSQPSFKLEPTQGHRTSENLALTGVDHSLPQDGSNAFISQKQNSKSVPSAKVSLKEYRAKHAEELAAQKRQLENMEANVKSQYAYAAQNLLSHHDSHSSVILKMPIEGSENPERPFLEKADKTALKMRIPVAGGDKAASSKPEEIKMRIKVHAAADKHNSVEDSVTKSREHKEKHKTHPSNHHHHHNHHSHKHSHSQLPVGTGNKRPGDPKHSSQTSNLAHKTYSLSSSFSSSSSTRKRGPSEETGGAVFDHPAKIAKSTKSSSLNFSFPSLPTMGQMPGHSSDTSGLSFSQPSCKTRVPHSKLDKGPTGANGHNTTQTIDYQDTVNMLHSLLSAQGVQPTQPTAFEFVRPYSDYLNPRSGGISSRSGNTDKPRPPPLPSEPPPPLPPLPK

Row | Compound | IC50 [nM]
1 | CC1(CNc2nc(-c3cc(NC4CCC(NC5CS(=O)(=O)C5)CC4)ncc3Cl)ccc2F)CCOCC1 (stereo not drawn) [Compound 347] | 1
2 | O=S1(=O)CCC(N[C@H]2CC[C@H](Nc3cc(-c4nc(NCC5CCOCC5)ccc4Cl)c(Cl)cn3)CC2)CC1 [Compound 348, 3,5′-dichloro-N6-((tetrahydro-2H-pyran-4-yl)methyl)-N2′-(trans-4-(1,1-dioxo-tetrahydro-2H-thiopyran-4-ylamino)cyclohexyl)-2,4′-bipyridine-2′,6-diamine] | 2
3 | COC[C@@H](C)N[C@H]1CC[C@H](Nc2cc(-c3cccc(NCC4(CO)CCOCC4)n3)c(Cl)cn2)CC1 [Compound 349, (4-((5′-chloro-2′-(trans-4-((R)-1-methoxypropan-2-ylamino)cyclohexylamino)-2,4′-bipyridin-6-ylamino)methyl)tetrahydro-2H-pyran-4-yl)methanol] | 1
4 | COC[C@@H](C)N[C@H]1CC[C@H](Nc2cc(-c3cccc(NCC4(C#N)CCOCC4)n3)c(Cl)cn2)CC1 [Compound 358, 4-((5′-chloro-2′-((1R,4r)-4-((R)-1-methoxypropan-2-ylamino)cyclohexylamino)-2,4′-bipyridin-6-ylamino)methyl)tetrahydro-2H-pyran-4-carbonitrile] | 0.17
5 | N#CC1(CNc2cccc(-c3cc(N[C@H]4CC[C@H](O)CC4)ncc3Cl)n2)CCOCC1 [Compound 359, 4-((5′-chloro-2′-((1r,4r)-4-hydroxycyclohexylamino)-2,4′-bipyridin-6-ylamino)methyl)tetrahydro-2H-pyran-4-carbonitrile] | 0.24
6 | CCN[C@H]1CC[C@H](Nc2cc(-c3cccc(NCC4(C#N)CCOCC4)n3)c(Cl)cn2)CC1 [Compound 360, 4-((5′-chloro-2′-((1r,4r)-4-(ethylamino)cyclohexylamino)-2,4′-bipyridin-6-ylamino)methyl)tetrahydro-2H-pyran-4-carbonitrile] | 0.28
7 | CN(C)[C@H]1CC[C@H](Nc2cc(-c3cccc(NCC4(C#N)CCOCC4)n3)c(Cl)cn2)CC1 [Compound 361, 4-((5′-chloro-2′-((1r,4r)-4-(dimethylamino)cyclohexylamino)-2,4′-bipyridin-6-ylamino)methyl)tetrahydro-2H-pyran-4-carbonitrile] | 0.3
8 | COC[C@@H](C)N[C@H]1CC[C@H](Nc2cc(-c3cccc(NCC4(C)CCS(=O)(=O)CC4)n3)c(Cl)cn2)CC1 [Compound 365] | 0.7
9 | CCN(CC)[C@H]1CC[C@H](Nc2cc(-c3cccc(NCC4(C#N)CCOCC4)n3)c(Cl)cn2)CC1 [Compound 366, 4-((5′-chloro-2′-((1r,4r)-4-(diethylamino)cyclohexylamino)-2,4′-bipyridin-6-ylamino)methyl)tetrahydro-2H-pyran-4-carbonitrile] | 1
10 | COC[C@@H](C)N[C@H]1CC[C@H](Nc2cc(-c3ccc(F)c(NCC(CO)CO)n3)c(Cl)cn2)CC1 [Compound 367, 2-((5′-chloro-5-fluoro-2′-((1R,4r)-4-((R)-1-methoxypropan-2-ylamino)cyclohexylamino)-2,4′-bipyridin-6-ylamino)methyl)propane-1,3-diol] | 3.1
11 | (S)-3-(trans-4-(3,5′-dichloro-6-((tetrahydro-2H-pyran-4-yl)methyl)amino-2,4′-bipyridin-2′-yl-amino)cyclohexylamino)-1,1,1-trifluoropropan-2-ol [Compound 289] | 4

test system: neointima formation; assay: not given; settings: rats; cited from earlier work

Row | Compound | inhibition of neointima formation
12 | COc1ccc(CNc2nc(N(CCO)CCO)nc3c2ncn3C(C)C)cc1 [CVT-313] | greater than 80%

From patent publication US8778951B2, “Heteroaryl compounds and their uses” (Novartis AG, priority 2009, dated 2014)
